Assay results as given in US12509460B2 (Skyhawk Therapeutics, Inc., priority 2019, dated 2025).

Key:
[1] = tested on: MDR1-MDCK cell monolayers; test: Blood-brain-barrier (BBB) penetration potential via MDCK-MDR1 permeability assay; conditions: for MDCK-MDR1: % Recov A-B: A-B direction; for MDCK-MDR1: % Recov B-A: B-A direction
MDR1 = test: as above; conditions: dog, MDCK-MDR1, pH 7.4, MDCK-MDR1: Efflux, efflux ratio
MDR1 (P-gp) = test: as above; conditions: dog; for Papp A→B at 120 min, 5 μM: MDCK-MDR1, pH 7.4, MDCK-MDR1: Papp A-B, A-B direction; for Papp B→A at 120 min, 5 μM: MDCK-MDR1, pH 7.4, MDCK-MDR1: Papp B-A, B-A direction
[2] = tested on: SMN protein in spinal muscular atrophy (SMA) patient fibroblasts (GM03813, Coriell); test: SMN protein assay, Mesoscale Discovery (MSD); type: cell-based, human; conditions: SMA patient fibroblasts GM03813, 48 hours, MSD; for EC50: read-out: SMN2 protein EC50
Summary of the method: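 Absolute SMN levels were quantified by MSD against an SMN protein standard curve (1 μg/ml to 19.5 pg/ml) run on each plate. Samples were lysates of GM03813 patient fibroblasts (7000 cells/well) treated 48 hours with compound doses from 2.5 μM down to 0.6 nM.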

[3] = tested on: mHTT protein in GM04724 (CAG 70/20) Huntington's disease patient lymphoblast cells; test: mHTT protein assay, 2B7-MW1 assay via Mesoscale Discovery (MSD); type: cell-based, human; conditions: GM04724 Huntington's disease patient lymphoblasts
Summary of the method: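 Signal from the 2B7-MW1 antibody pair on MSD, rising with polyQ length and smaller HTT fragments, measured mHTT after 48 h compound exposure (0.6 nM–10 μM) in GM04724 cells. A parallel replicate plate gave CellTiter Glo viability.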

[4] = Quantitative splicing assay (HTT), qPCR; type: cell-based, human; conditions: Homo sapiens, GM04724, 24 h, GM04724 lymphoblasts, qPCR, read-out: HTT Splicing: E49-50 EC50
Summary of the method: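 TaqMan qPCR on cell-lysate cDNA quantifies cryptic-exon inclusion from HTT intron 49. Lymphoblasts plated at 50,000 cells/well had received compound for 24 h, 0.15 nM-2.5 uM range, 0.1% DMSO.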

[5] = tested on: SMN FL and SMN Δ7 in spinal muscular atrophy (SMA) patient fibroblasts (GM03813, Coriell); test: Quantitative splicing assay (SMN), qPCR; type: cell-based, human; conditions: Homo sapiens, Fibroblast, 24 h, SMA patient fibroblasts GM03813, 24 h, qPCR; read-out: SMN2 Splicing FL EC50
Procedure: Spinal muscular atrophy (SMA) patient fibroblasts (GM03813, Coriell) are plated in 96-well plates at 50,000 cells/well. […] Treated cells are lysed and cDNA synthesized using the Fast Advanced Cells-to-Ct kit (Thermofisher A35378) according to the manufacturer's instructions. 2 μL of each cDNA are used in qPCR reactions. […] Reactions are run in a Quant Studio 6 qPCR instrument with default settings.

SMILES | MDCK-MDR1: % Recov A-B [1] [%] | MDCK-MDR1: % Recov B-A [1] [%] | efflux ratio at 120 min, 5 μM (MDR1) | Papp A→B at 120 min, 5 μM (MDR1 (P-gp)) [×10⁻⁶ cm/s] | Papp B→A at 120 min, 5 μM (MDR1 (P-gp)) [×10⁻⁶ cm/s] | EC50 [2] [nM] | EC50 [3] [nM] | EC50 [4] [nM] | EC50 [5] [nM] | SMN2 protein EC50 [2]
CN(c1ccc(-c2cc3ncn(C)c(=O)c3cc2O)nn1)[C@H]1C[C@@H]2CC[C@@H](N2)[C@H]1F [Compound 51B, 7-(6-(((1R,2R,3S,5S)-2-fluoro-8-azabicyclo[3.2.1]octan-3-yl)(methyl)amino)pyridazin-3-yl)-6-hydroxy-3-methylquinazolin-4(3H)-one] | 88 | 90 | 55 | 0.91 | 50.3 | 0.01 to 15 | 0.01 to 15 | 0.01 to 15 | 0.01 to 15 | –
CN(c1ccc(-c2cc(F)c(-n3ccnn3)cc2O)nn1)[C@@H]1C[C@H]2CC[C@H](N2)[C@@H]1F [Compound 52A, 4-fluoro-2-(6-(((1S,2S,3R,5R)-2-fluoro-8-azabicyclo[3.2.1]octan-3-yl)(methyl)amino)pyridazin-3-yl)-5-(1H-1,2,3-triazol-1-yl)phenol] | 86 | 92 | 8 | 6.63 | 49.7 | 16 to 50 | 16 to 50 | 101 to 500 | 51 to 100 | –
CN(c1ccc(-c2cc(F)c(-n3ccnn3)cc2O)nn1)[C@H]1C[C@@H]2CC[C@@H](N2)[C@H]1F [Compound 52B, 4-fluoro-2-(6-(((1R,2R,3S,5S)-2-fluoro-8-azabicyclo[3.2.1]octan-3-yl)(methyl)amino)pyridazin-3-yl)-5-(1H-1,2,3-triazol-1-yl)phenol] | 97 | 90 | 7 | 7.44 | 54.4 | 0.01 to 15 | 0.01 to 15 | 16 to 50 | 16 to 50 | –
Cn1cnc2cc(-c3ccc(N(C4CC4)[C@H]4C[C@@H]5CC[C@@H](N5)[C@H]4F)nn3)c(O)cc2c1=O [Compound 56B, 7-(6-(cyclopropyl((1R,2R,3S,5S)-2-fluoro-8-azabicyclo[3.2.1]octan-3-yl)amino)pyridazin-3-yl)-6-hydroxy-3-methylquinazolin-4(3H)-one] | 96 | 97 | 46 | 1.12 | 51.2 | – | 0.01 to 15 | 0.01 to 15 | 16 to 50 | E (501 ≤ E ≤ 10.000)
O=C(c1cc2cc(O)c(-c3ccc(N(C4CC4)[C@H]4C[C@@H]5CC[C@@H](N5)[C@H]4F)nn3)cc2o1)N1CCC1 [Compound 57B, azetidin-1-yl(6-(6-(cyclopropyl((1R,2R,3S,5S)-2-fluoro-8-azabicyclo[3.2.1]octan-3-yl)amino)pyridazin-3-yl)-5-hydroxybenzofuran-2-yl)methanone] | 99 | 95 | 71 | 0.69 | 48.5 | 0.01 to 15 | 0.01 to 15 | 16 to 50 | 16 to 50 | –
CN(c1ccc(-c2ccc(-n3ccnn3)cc2O)nn1)[C@H]1C[C@@H]2CC[C@@H](N2)[C@H]1F [Compound 61B, 2-(6-(((1R,2R,3S,5S)-2-fluoro-8-azabicyclo[3.2.1]octan-3-yl)(methyl)amino)pyridazin-3-yl)-5-(1H-1,2,3-triazol-1-yl)phenol] | 98 | 93 | 12 | 3.79 | 45.8 | 0.01 to 15 | 0.01 to 15 | 0.01 to 15 | 0.01 to 15 | –
CN(c1ccc(-c2ccc(-n3ccnn3)cc2O)nn1)[C@@H]1C[C@H]2CCC[C@H](N2)[C@@H]1F [Compound 62A, 2-(6-(((1S,2S,3R,5R)-2-fluoro-9-azabicyclo[3.3.1]nonan-3-yl)(methyl)amino)pyridazin-3-yl)-5-(1H-1,2,3-triazol-1-yl)phenol] | 113 | 109 | 18 | 3.37 | 61.4 | 16 to 50 | 0.01 to 15 | 0.01 to 15 | 16 to 50 | –
CN(c1ccc(-c2ccc(-n3ccnn3)cc2O)nn1)[C@H]1C[C@@H]2CCC[C@@H](N2)[C@H]1F [Compound 62B, 2-(6-(((1R,2R,3S,5S)-2-fluoro-9-azabicyclo[3.3.1]nonan-3-yl)(methyl)amino)pyridazin-3-yl)-5-(1H-1,2,3-triazol-1-yl)phenol] | 82 | 80 | 19 | 3.18 | 59.8 | 0.01 to 15 | 0.01 to 15 | 0.01 to 15 | 0.01 to 15 | –
CN(c1ccc(-c2cc3ncccc3cc2O)nn1)[C@@H]1C[C@H]2CC[C@H](N2)[C@@H]1F [Compound 73A, 7-(6-(((1S,2S,3R,5R)-2-fluoro-8-azabicyclo[3.2.1]octan-3-yl)(methyl)amino)pyridazin-3-yl)quinolin-6-ol] | 76 | 91 | 21 | 2.92 | 61.3 | 0.01 to 15 | 0.01 to 15 | 0.01 to 15 | 0.01 to 15 | –
CN(c1ccc(-c2cc3ncccc3cc2O)nn1)[C@H]1C[C@@H]2CC[C@@H](N2)[C@H]1F [Compound 73B, 7-(6-(((1R,2R,3S,5S)-2-fluoro-8-azabicyclo[3.2.1]octan-3-yl)(methyl)amino)pyridazin-3-yl)quinolin-6-ol] | 72 | 72 | 16 | 3.38 | 55.1 | 16 to 50 | 16 to 50 | 0.01 to 15 | 0.01 to 15 | –
CN(c1ccc(-c2cc3cccnc3cc2O)nn1)[C@H]1C[C@@H]2CC[C@@H](N2)[C@H]1F [Compound 74B, 6-(6-(((1R,2R,3S,5S)-2-fluoro-8-azabicyclo[3.2.1]octan-3-yl)(methyl)amino)pyridazin-3-yl)quinolin-7-ol] | 77 | 90 | 19 | 3 | 56 | 0.01 to 15 | 0.01 to 15 | 51 to 100 | 16 to 50 | –
